In ChEMBL document CHEMBL1201862, “PubChem BioAssay data set” (2004):
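Following 48 hours of exposure in 96-well plates, responses at five concentrations were used to interpolate endpoints linearly. At the GI50, growth is halved.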 Activity calls are given as the source filed them. Cut-off read from the data, not from the text of the source: active = GI50 up to about 1.1 µM and inactive = higher.

What was measured:
Test in all cases: NCI-60 cell line screen, 48 h
K562 = test system: K562
BT-549 = test system: BT-549
SF-539 = test system: SF-539
NCI/ADR-RES = test system: NCI/ADR-RES
SNB-19 = test system: SNB-19
Malme-3M = test system: Malme-3M
TK-10 = test system: TK-10
HCC 2998 = test system: HCC 2998
KM12 = test system: KM12
LOX IMVI = test system: LOX IMVI
IGROV-1 = test system: IGROV-1
EKVX = test system: EKVX
ACHN = test system: ACHN
PC-3 = test system: PC-3
CCRF-CEM = test system: CCRF-CEM
HL-60 = test system: HL-60
OVCAR-5 = test system: OVCAR-5
SF-268 = test system: SF-268

Measured: GI50

COc1cc2c(cc1OC)CN1CCc3ccccc3CC1C2 (configuration not stated)
inactive: K562 32.9 µM | BT-549 31.3 µM | SF-539 34.4 µM | NCI/ADR-RES 54.7 µM | SNB-19 52 µM | Malme-3M 25.8 µM | TK-10 13.7 µM | HCC 2998 28.8 µM | KM12 33.1 µM | LOX IMVI 39 µM | IGROV-1 17.5 µM | EKVX 47.3 µM | ACHN 22.6 µM | PC-3 41.7 µM | CCRF-CEM 36.9 µM | HL-60 27.2 µM | OVCAR-5 > 100 µM

COc1cc(C2C3=C(CCCC3=O)N(c3ccc(C)cc3)C3=C2C(=O)CCC3)c([N+](=O)[O-])cc1OC
inactive: K562 79.3 µM | BT-549 > 100 µM | SF-539 61.1 µM | NCI/ADR-RES > 100 µM | SNB-19 > 100 µM | TK-10 > 100 µM | HCC 2998 > 100 µM | KM12 > 100 µM | LOX IMVI 83.6 µM | IGROV-1 > 100 µM | EKVX > 100 µM | ACHN 65.3 µM | PC-3 > 100 µM | CCRF-CEM 40.7 µM | HL-60 45.4 µM | OVCAR-5 > 100 µM | SF-268 97.5 µM

COc1ccc(/C=C/C(=O)CCN2CCN(CCC(=O)/C=C/c3ccc(OC)cc3)CC2)cc1
inactive: K562 5.22 µM | BT-549 18.6 µM | SF-539 6.17 µM | NCI/ADR-RES 36.4 µM | SNB-19 43.6 µM | Malme-3M 18.7 µM | TK-10 14.9 µM | HCC 2998 12.2 µM | KM12 10.7 µM | LOX IMVI 3.49 µM | IGROV-1 11.5 µM | EKVX 14.5 µM | ACHN 14.2 µM | PC-3 12.9 µM | HL-60 4.61 µM | OVCAR-5 17.9 µM | SF-268 17.4 µM

COC(=O)c1c(O)ccc2c1c1c(n2Cc2ccccn2)C(=O)c2ccccc2C1
inactive: K562 > 100 µM | BT-549 > 100 µM | SF-539 87.9 µM | NCI/ADR-RES 44.4 µM | SNB-19 > 100 µM | Malme-3M > 100 µM | TK-10 > 100 µM | KM12 > 100 µM | LOX IMVI > 100 µM | IGROV-1 71 µM | PC-3 16.5 µM | CCRF-CEM 27.9 µM | HL-60 > 100 µM | OVCAR-5 49.8 µM | SF-268 74.5 µM

O=C(Nc1cccc2ccccc12)c1cc2ccccc2oc1=O
inactive: K562 > 100 µM | BT-549 > 100 µM | SF-539 14.6 µM | NCI/ADR-RES 60.3 µM | SNB-19 22 µM | Malme-3M 12.5 µM | HCC 2998 > 100 µM | KM12 > 100 µM | LOX IMVI > 100 µM | IGROV-1 18.5 µM | ACHN 24.3 µM | PC-3 > 100 µM | CCRF-CEM > 100 µM | HL-60 > 100 µM | OVCAR-5 41.1 µM | SF-268 23.3 µM
